Data on one compound can be found in PMC8567874, “Metronomic delivery of orally available pemetrexed-incorporated colloidal dispersions for boosting tumor-specific immunity” (Drug Delivery, 2021).

Read-outs that look alike come from different tables or passages of the source.

Data set [1] is described as follows: Octanol/water apparent partition coefficient. Format: physicochemical. The conditions noted are these: n = 4, read-out: Log P (logarithm of the octanol/water partition coefficient). From the text:
^aLogarithm of the octanol/water partition coefficient. Each value represents the mean ± standard deviation (n = 4).

The subject of data set [2] is CT26.CL25 cells. Briefly: Immunoblotting of CRT and HMGB-1. Format: cell-based. The following applies: CT26.CL25, 300 µM, 48 h, western blot. Here is the method: CT26.CL25 cells (1 × 10^5 per well) cultured in 6-well plates were treated with 300 µM DL, 300 µM PMX or PMX/DL (equivalent 300 µM PMX) for 48 h. The cells were then lysed in RIPA buffer with protease and phosphatase inhibitors (GenDEPOT, Barker, TX, USA). Each sample was loaded with 20 µg of protein and fractionated using SDS-PAGE (Biosesang, Gyeonggi-do, South Korea), followed by wet transfer to nitrocellulose membrane (Bio-Rad Laboratories, Inc., Hercules, CA, USA). Anti-CRT, anti-HMGB-1, GAPDH rabbit mAb (Cell Signaling Technology, Danvers, MA, USA), and anti-rabbit IgG peroxidase (Sigma–Aldrich) antibodies were used.
A general note: A western blot detects proteins with antibodies after separation by electrophoresis.

Data set [3] is described as follows: In vivo pharmacokinetic study in rats. Also noted: species or system Sprague–Dawley (SD) rats. Here is the method: The separated plasma samples were kept at −80 °C before analysis and the drug concentration in each plasma sample was determined by LC-MS. […] Agilent Technologies, Santa Clara, CA, USA), conditioned with 500 µL of methanol, followed by 500 µL of deionized water. After loading the standards or samples into the cartridges, the unadsorbed particles were washed out with 500 µL of deionized water and methanol. […] PMX and IS were ionized using electrospray ionization (ESI) source in positive ion mode under a capillary voltage of 3.5 kV, drying gas flow rate of 3.1 L/min, and drying gas temperature of 300 °C. […] Pharmacokinetic parameters were estimated using a non-compartmental model in WinNonlin® software (ver. 5.3; Pharsight Corp., Mountain View, CA, USA). All data were expressed as means ± standard deviations (SDs), or standard errors of the mean (SEMs). Statistical analysis was performed by one-way analysis of variance (ANOVA) followed by Tukey’s multiple comparison test for unpaired data with more than three means. In all analyses, p < .05 was taken to indicate statistical significance.

The test system of data set [4] is CT26.CL25 tumor-bearing mice. Nature of the data set: In vivo immunostimulatory effects in CT26.CL25 tumor-bearing mice (flow cytometry, ELISPOT, slide staining). The following applies: 3 weeks, PMX 150 mg/kg IV every 3 weeks, PMX/DL-CD oral daily 20 mg/kg PMX. As for the experimental part:
To investigate in vivo immunostimulatory effects of oral metronomic PMX, BALB/c mice were inoculated with 1 × 10^6 of CT26.CL25 cells per mouse. The mice were randomly divided into three groups (10 mice per group) once the tumor volume had reached 50–70 mm^3: control (untreated), PMX-IV (150 mg/kg PMX administered IV every 3 weeks), and PMX/DL-CD (oral PMX/DL(1:1)-CD administered daily, equivalent to 20 mg/kg PMX). The mice were sacrificed 3 weeks after treatment and the tumors were isolated. The tumor tissues were converted into single cells by passing them through a 40-µm filter after digestion with collagenase A (0.2% w/v), DNAse (30 U/mL), and dispase (10 U/mL) in MACS (gentleMACS Octo Dissociator with Heaters; Miltenyi Biotec, Bergisch Gladbach, Germany) at 37 °C for 45 min. Some cells were collected for tumor-infiltrating lymphocyte analyses and centrifuged using histopaque-1077 for 20 min at 450 g to isolate the lymphocytes. The isolated cells were then stained with fluorescence-conjugated antibodies and incubated. The cells were washed and suspended in FACS buffer and then collected into FACS tubes. The cells were then analyzed using flow cytometry (FACS Aria II) and the data were analyzed using FlowJo software (FlowJo LLC, Ashland, OR, USA). Cell populations were acquired by gating, as follows: tumor-infiltrating lymphocytes (DAPI^−/CD45^+), helper T cells (DAPI^−/CD45^+/CD3^+/CD4^+), PD-L1-expressing tumor cells (DAPI^−/CD45^−/PD-L1^+), proliferating cytotoxic T cells (DAPI^−/CD45^+/CD3^+/CD8^+/ki67^+), and IFN-γ-secreting T cells (DAPI^−/CD45^+/CD3^+/CD8^+/IFN-γ^+).
Lymphocytes were isolated from the tumors using the procedure described previously; 2 × 10^5 tumor lymphocytes per well, along with β-gal (5 µg/mL), were incubated on pre-coated 96-well plates in CTL test medium for 24 h at 37 °C with 9% CO2. […] After the procedure, the plates were scanned and the spots were counted in the ELISpot counter (Immunospot® S6 ULTIMATE analyzer; Cellular Technology Ltd.). […]
For orientation: A flow cytometer gives signals particle by particle.

Data set [5] has as its system CT26.CL25 cells. Briefly: Immunofluorescence (confocal) analysis of ICD induction. Format: cell-based. The conditions noted are these: CT26.CL25, 300 µM, 48 h, confocal microscopy. Here is the method:
CT26.CL25 cells, cultured in coverslips at 1 × 10^4 cell density, were treated with 300 µM DL, 300 µM PMX, or PMX/DL (equivalent to 300 µM PMX) for 48 h. The PMX dose was converted from the Cmax of the pharmacokinetic profile in patients treated with 500 mg/m^2 PMX-IV (Li et al., [2007]). The cells were then washed with PBS, fixed in 10% formalin solution, and incubated with a cell membrane marker, Texas Red-X conjugated wheat germ agglutinin solution (5 µg/mL), for 10 min at room temperature. The cells were washed and permeabilized with 1% Triton-X solution for 40 min at room temperature. The cells were then incubated overnight with primary anti-CRT (1:200) or anti-HMGB-1 (1:200) antibodies at 4 °C after washing with PBS. On the following day, the cells were washed and incubated with secondary anti-rabbit Alexa Fluor 488 (1:400; Invitrogen; Thermo Fisher Scientific) for 1 h at room temperature and then stained with DAPI. Confocal laser scanning microscopy (TCS SP8; Leica Microsystems, Wetzlar, Germany) was used to obtain images.

Where [6] appears, read: Sprague-Dawley, rat, plasma, IV, 10 mg/kg PMX.
The mark [7] stands for this setting: Sprague-Dawley, rat, plasma, oral, 20 mg/kg PMX.

For the compound `Nc1nc2[nH]cc(CCc3ccc(C(=O)N[C@@H](CCC(=O)O)C(=O)O)cc3)c2c(=O)[nH]1` [PMX, Pemetrexed], in data set [1], the logP was -1.14 ± 0.01. Further, the “CRT- and HMGB-1-protein content compared to untreated and DL-treated cells” value in the data set with CT26.CL25 cells [2] is listed as “higher”. In data set [3] (IV, 10 mg/kg PMX), the maximum concentration (Cmax) stood at 32300 ± 1220 ng/mL. In data set [3] (IV, 10 mg/kg PMX (reference)), this compound came in with a bioavailability of 100%. In data set [3] (setting [6]), this compound had an AUC(0-inf) of 25300 ± 3560 ng·h/mL, an AUC(0-t) of 25100 ± 3560 ng·h/mL and a half-life of 57.2 ± 2.58 min. Also, in data set [3] (setting [7]), the AUC(0-inf) is 8960 ± 89 ng·h/mL, the AUC(0-t) was 3930 ± 380 ng·h/mL, the Tmax is 30 min and the half-life is 786 ± 109 min. The bioavailability in data set [3] (Sprague-Dawley, rat, plasma, oral, 20 mg/kg PMX, read-out: Bioavailability) stood at 7.8 ± 0.755%. Also, the Cmax in data set [3] (Sprague-Dawley, rat, plasma, oral, 20 mg/kg PMX, read-out: Cmax) is 579 ± 73 ng/mL. Moreover, in data set [4], the “CD4+ T-cell population in tumor compared to control” value is given as “substantially increased”; the “CD45+ cell infiltration in tumor compared to control” value is “slightly increased”; the “PD-L1 expression in tumor cells, times greater compared to the control group” value is “two”. Moreover, in the data set with CT26.CL25 cells [5], the “CRT-fluorescence compared to controls and DL-treated cells” value is “more intense”; the “HMGB-1-release compared to controls and DL-treated cells” value is listed as “higher”.

As usually defined, the Cmax is the highest concentration seen after dosing. For orientation: bioavailability means the share of a dose that reaches the circulation, judged against a reference dose that is usually intravenous. The AUC(0-inf) is the area under the concentration-time curve extrapolated to infinity. By AUC(0-t) is commonly meant the area under the concentration-time curve up to a stated or last time point. As a reminder, the half-life is how long it takes for the measured level to halve. A high value points to slow decline. One may read the Tmax as the time at which the peak concentration occurs.
